Here are results for 6 compounds from patent publication US10471025B2, “Compositions for use in treating parkinson's disease and related disorders” (Technophage, Investigação E Desenvolvimento Em …, priority 2015, dated 2019).

Structures are written as SMILES. Several values for one entry are separate records, joined by “and”; a condition that tells them apart may be missing. Equal entries are not always repeated. Entries after “also recorded” stand apart in the source; their conditions may differ. Where two headings read alike, the source gives them in different places.

The target of data set [1] is T1, COX-2 (Homo sapiens, UniProt P35354).
T1 sequence (P35354 18-604): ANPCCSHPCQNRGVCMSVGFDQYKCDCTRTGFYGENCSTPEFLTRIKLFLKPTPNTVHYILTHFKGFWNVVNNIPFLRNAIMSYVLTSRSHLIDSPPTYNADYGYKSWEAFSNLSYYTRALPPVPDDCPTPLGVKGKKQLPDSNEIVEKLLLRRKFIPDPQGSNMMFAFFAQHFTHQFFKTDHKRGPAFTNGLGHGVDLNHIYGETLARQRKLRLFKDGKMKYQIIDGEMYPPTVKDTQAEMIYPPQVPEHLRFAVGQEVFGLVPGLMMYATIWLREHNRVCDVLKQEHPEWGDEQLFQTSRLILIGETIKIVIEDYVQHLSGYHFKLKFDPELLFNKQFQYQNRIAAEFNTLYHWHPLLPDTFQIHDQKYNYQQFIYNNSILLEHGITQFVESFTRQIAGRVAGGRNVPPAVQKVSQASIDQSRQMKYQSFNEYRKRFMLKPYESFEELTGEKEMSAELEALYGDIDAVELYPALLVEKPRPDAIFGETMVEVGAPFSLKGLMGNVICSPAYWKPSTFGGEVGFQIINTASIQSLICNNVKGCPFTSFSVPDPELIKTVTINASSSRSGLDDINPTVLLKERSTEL
To be noted: cited from earlier work.

The test system of data set [2] is rat. To be noted: rat; cited from earlier work.
The test system of data set [3] is 6-OHDA treated zebrafish larvae. Description: Rescue of Tyrosine hydroxylase (TH)-positive dopaminergic neurons in 6-OHDA zebrafish larvae. It counts as in vivo. As to conditions: for Neurorescue: TH+ neurons at optimal dose, p. The method, then: The 7 candidates also were tested in terms of rescue of dopaminergic neurons positive for Tyrosine hydroxylase (Th) in the substancia nigra pars compacta of the test animals. […] Results were normalized for healthy control values (healthy control=100% of neurons). As a control, zebrafish were treated with only the vehicle, ascorbic acid. ‘6-OHDA_ represents results in zebrafish receiving no treatment.
FIGS. 6E-6G show representative Z-projections of confocal stacks of whole-mount anti-TH immunohistochemistry in 6 days post-fertilization (dpf) of zebrafish larvae (age of the fish) control (FIG. 6E), 6-OHDA (FIG. 6F), and tapentadol treated-larvae (FIG. 6G).

Data set [4] has the same test system. Description: Locomotor behavior rescue (total distance moved, number of jumps) in 6-OHDA zebrafish PD model. It counts as in vivo. As to conditions: for Optimal concentration: behavioral experiments and TH+ cell counts. From the text: To model Parkinson ̆s disease (PD), a neurotoxin 6-OHDA (6-hyroxydopamine) based method was used in zebrafish and in mice. In this model, 6-OHDA-lesions induce motor manifestations in zebrafish and in mice, such as reduced locomotor ability, and the loss of dopaminergic neurons. Based on the 6-OHDA PD zebrafish model, compounds from a small molecules library were screened for rescue of the parkinsonian phenotype (Example 1, see below).
The screen was based on both the recovery of impaired locomotor behavior and dopaminergic neuronal loss.
Values were normalized for the mean of disease state in each experiment (disease=1). Each plot contains data from 3 independent experiments with a total of 24 larvae. As a control, zebrafish were treated with only the vehicle, ascorbic acid.
For these experiments, Tubingen (TU) wild-type zebrafish, a specific strain of wild-type zebrafish, were used.

For data set [5] the test system is unchanged. Description: Co-administration with L-Dopa, total distance 6-OHDA larvae move. It counts as in vivo. To be noted: total distance; L-Dopa 250 or 125 μM.
For data set [6] the following is noted: in DMSO; cited from earlier work.
For data set [7], the system named is 6-OHDA treated zebrafish larvae. Description: LD50 / lethality in the disease context of the zebrafish model.
Data set [8] shares this test system. Briefly: Freezing (duration of freezing periods, light/dark stimulus) in 6-OHDA zebrafish larvae. It counts as in vivo. As to conditions: for Freezing recovery: optimal concentrations, methylphenidate 25 μM. The method, then:
In the zebrafish model, the locomotor impairment was measured and related with bradykinesia in patients. Tests included evaluating ‘freezing_ in response to a light/dark stimulus. 6-OHDA induced larvae had fewer freezing episodes but spent longer periods in the frozen state. In previous studies, the duration of freezing episodes has been analyzed in PD patients. […] Nonetheless, it is an inhibitor of the neuronal dopamine transporter and since 6-OHDA needs DAT to enter the neuron and induce the disease, methylphenidate may be a false positive.
As FIGS. 9B-9C show, freezing recovery was tested using 7 candidate molecules at optimal concentrations, in an exemplary experiment with n=8 fish, and methylphenidate and amantadine at 25 ? M.

The conditions of data set [9]: cited from earlier work.
Data set [10] relates to mouse. To be noted: mouse; cited from earlier work.
For data set [11] the following is noted: cited from earlier work. The source holds these as a separate data set.
The conditions of data set [12]: in vivo; cited from earlier work.
Data set [13] relates to healthy wild type mice. Briefly: Toxicity assay, welfare and necropsy (Example 6). To be noted: tramadol 10 mg/kg in combination with L-Dopa; L-Dopa 18 mg/kg; 24 h. The method, then:
Their behavior was evaluated with open field tests for 1 h after i.p. injection. After 24 h, animals were sacrificed and necropsy was performed
9 week old NMRI female mice were used for this assay. Animals were tested for their welfare after two intraperitoneal injections of the test agents using the open field test. Necropsy was done after cervical dislocation. […] Benserazide at 12 mg/kg was administered 30 minutes prior to administration of these compounds, in all groups. Saline was given to the control group.
After benserazide administration, animals were monitored in the open field for 30 minutes for habituation. […] 24 hours after administration of the compounds, the animals were sacrificed and necropsy performed.
For administration of the various agents to the animals, two 700 ? L injections were administered 30 minutes apart.

The mark [14] stands for this setting: oral 1,000-2,000 mg to steady state.

Usually LD50 stands for the dose at which mortality reaches 50%.

As for `COc1ccc2cc(CCC(C)=O)ccc2c1` [nabumetone], the COX-2 inhibition result in data set [1] is “poor COX-2 inhibitor”. For the same compound, the 50% lethal dose (LD50) result in data set [2] is on record as “(mouse) or 3880 mg/kg”. For the same compound, in data set [3], the Neurorescue result is “confirmed”. For the same compound, in [3] (at the optimal concentration of each molecule), the “Neuroprotective effect / recovery of TH+ neurons” value is on record as “confirmed; also recorded: Recovery was observed”. For the same compound, in data set [4] (7 candidate molecules, 3 independent experiments), the “Locomotor behavior rescue (total distance moved, number of jumps), confirmation of screen” value was “strong candidates”. In data set [4], this compound returned an Optimal concentration of 0.9 µM. In [4] (zebrafish, in vivo), the “Number of jumps: concentration validated as recovering the 6-OHDA induced behavior” value was 0.456 µM; the “Total distance travelled, difference between treated larvae and disease control” value is recorded as approximately 200 mm. Moreover, the “Effect of co-administration with L-Dopa on locomotor recovery” value in data set [5] is recorded as “the same”. Further, the Solubility in data set [6] is 50 mg/ml in. Also, the Embryo lethality result in [7] (18 μM) is “no dead embryos”. For the same compound, in [7] (27 μM), the Embryo lethality entry is “all of the embryos were dead”. In addition, the Freezing recovery entry in data set [8] is listed as “do not show an ability to recover freezing phenotype”. The “Duration of freezing periods, recovery vs 6-OHDA treated larvae” value in [8] (tapentadol 48.5, stavudine 50, nabumetone 0.91 μM, L-Dopa treatment) is reported as “not recovered”. In addition, in [9] (1,000 mg oral dose), the “Share of dose converted into unidentified metabolites” value is 50% and the “Share of dose converted to 6MNA” value is given as “Approximately 35%”. The “Absorption from the gastrointestinal tract” value in [9] (in vivo) was “well absorbed”. For the same compound, the LD50 in [10] was 4290 mg/kg.
Take `COC(=O)C1=C(C)NC(C)=C(C(=O)OC(C)C)C1c1cccc2nonc12` (centres unmarked) [Isradipine]: the Neurorescue result in data set [3] is listed as “confirmed”. In [4], this compound displayed an Optimal concentration of 0.045 µM. Moreover, the “Effective concentration / peak, small range plot” value in data set [4] (phenotype recovery, total distance moved) was 0.045 µM and 0.084 µM. Besides, the “Effect of co-administration with L-Dopa on locomotor recovery” value in data set [5] was “lost its effect”. Also, the Solubility in [6] is given as 25 mg/ml in.
`COc1ccc2cc(CC(=O)O)ccc2c1` [6MNA, 6-methoxy-2-naphthylacetic acid]: the “Inhibition of prostaglandin synthesis” value in data set [1] (most likely through binding to the COX-2 and COX-1 receptors) is on record as “potent inhibitor”. Further, the “Printed only as 'It is 0.2-0.3%' (after plasma protein binding)” value in data set [9] (concentrations typically achieved following 1,000 mg of nabumetone) is recorded as 0.2-0.3%. For the same compound, the “Bound to plasma proteins” value in data set [9] (in vivo) was “more than 99%”. Also, in data set [9] (setting [14]), the Elimination half-life result is “approximately 24 hours” and the Mean plasma clearance is 20 to 30 mL/min.
In the case of `COC(=O)C(c1ccccc1)C1CCCCN1` (centres unmarked) [Methylphenidate], the Freezing recovery result in data set [8] is given as “more consistent freezing recovery”.
For `CC[C@@H](c1cccc(O[C@@H]2O[C@H](C(=O)O)[C@@H](O)[C@H](O)[C@H]2O)c1)[C@@H](C)CN(C)C` [tapentadol-O-glucuronide], the “AUC, fold higher compared with normal renal function” value is listed as 1.5 fold in data set [11] (mild renal impairment (CLCR=50 to <80 mL/min)), 2.5 fold in data set [11] (moderate renal impairment (CLCR=30 to <50 mL/min)) and 5.5 fold in data set [11] (severe renal impairment (CLCR=<30 mL/min)). In data set [11] (multiple (every 6 hour) dose study, 75 to 175 mg tapentadol), the Mean accumulation factor is recorded as 1.8. Further, the Blood-brain barrier crossing result in [12] is listed as “lower permeability through the blood brain barrier”.
For the compound `COc1cccc(C2(O)CCCCC2CN(C)C)c1` (centres unmarked) [tramadol], the Necropsy findings entry in [13] is “normal abdominal organs, with the exception of one that had a slight hyperemia in the small intestine”.
